The target of data set [1] is T1, Sodium/glucose cotransporter 2 (Homo sapiens, UniProt P31639).
T1 sequence (P31639 whole entry): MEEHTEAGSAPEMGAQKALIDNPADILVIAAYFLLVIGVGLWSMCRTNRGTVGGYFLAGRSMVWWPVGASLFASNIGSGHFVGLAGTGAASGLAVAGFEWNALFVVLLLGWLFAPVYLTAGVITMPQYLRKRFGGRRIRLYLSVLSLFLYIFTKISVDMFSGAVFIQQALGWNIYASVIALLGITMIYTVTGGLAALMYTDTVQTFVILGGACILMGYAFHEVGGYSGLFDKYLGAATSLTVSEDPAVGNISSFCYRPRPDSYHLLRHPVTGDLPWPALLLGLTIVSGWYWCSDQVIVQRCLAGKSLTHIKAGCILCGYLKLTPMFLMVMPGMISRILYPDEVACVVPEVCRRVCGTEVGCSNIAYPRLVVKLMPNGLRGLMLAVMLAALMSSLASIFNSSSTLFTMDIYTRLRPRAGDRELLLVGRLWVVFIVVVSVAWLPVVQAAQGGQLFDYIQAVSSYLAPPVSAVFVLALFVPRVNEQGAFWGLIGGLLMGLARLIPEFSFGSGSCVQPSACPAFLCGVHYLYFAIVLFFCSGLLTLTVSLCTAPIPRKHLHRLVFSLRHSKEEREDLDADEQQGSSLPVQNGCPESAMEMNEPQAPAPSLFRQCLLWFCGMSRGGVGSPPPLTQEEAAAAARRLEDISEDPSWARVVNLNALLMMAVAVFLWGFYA
Put plainly: Inhibition of human SGLT2 expressed in CHO-K1 cells by [14C]AMG uptake assay. It is filed as cell-based.

Data set [2] has as its target T2, Cytochrome P450 3A4 (Homo sapiens, UniProt P08684). Nature of the data set: Inhibition of CYP3A4 using BFC substrate in which compound added to reaction mixture before addition of BFC substrate by fluorometric assay. In kind it is ADME.
The target in data set [3] is T2, Cytochrome P450 3A4. Put plainly: Inhibition of CYP3A4 using BFC substrate in which compound added to reaction mixture simultaneously with BFC substrate by fluorometric assay. It is filed as ADME.
The nature of data set [4]: (§1) Apparent volume of distribution during terminal phase in db/db mouse at 10 mg/kg, po administered as single dose by LC-MS/MS system method. In kind it is ADME, organism-based. On the set-up: dose 10 mg/kg, route oral. As to conditions: db/db, in vivo, read-out: Vz/F.
Data set [5] in a line: AUC (infinity) in db/db mouse at 10 mg/kg, po administered as single dose by LC-MS/MS system method. In kind it is ADME, organism-based. On the set-up: time infinity, dose 10 mg/kg, route oral. As to conditions: plasma.
Data set [6] in a line: (§2) Half life in db/db mouse at 10 mg/kg, po administered as single dose by LC-MS/MS system method. The settings on record: db/db, in vivo. It is filed as ADME, organism-based. On the set-up: dose 10 mg/kg, route oral.
Data set [7] can be described thus: Apparent oral clearance in db/db mouse at 10 mg/kg, po administered as single dose by LC-MS/MS system method. It is filed as ADME, organism-based. Set-up: dose 10 mg/kg, route oral. As to conditions: in vivo.
In data set [8] the test system is Mus musculus. Nature of the data set: Hypoglycemic effect in db/db mouse assessed as reduction in glucose level at 30 mg/kg, po measured 4 hrs post dose administered as single dose by hexokinase method. In kind it is functional, organism-based. Set-up: dose 30 mg/kg.
Data set [9] relates to Mus musculus. Nature of the data set: Hypoglycemic effect in db/db mouse assessed as reduction in glucose AUC (0 to 8 hrs) at 30 mg/kg, po administered as single dose by hexokinase method relative to untreated control. It is filed as functional. On the set-up: scale not given: the % may be the effect or the level left.
Data set [10] can be described thus: (§3) Cmax in db/db mouse at 10 mg/kg, po administered as single dose by LC-MS/MS system method. In kind it is ADME, organism-based. Set-up: dose 10 mg/kg, route oral. As to conditions: db/db, in vivo.
Data set [11] can be described thus: Tmax in db/db mouse at 10 mg/kg, po administered as single dose by LC-MS/MS system method. In kind it is ADME, organism-based. On the set-up: dose 10 mg/kg, route oral. The settings on record: in vivo.
In data set [12] the test system is Mus musculus. Nature of the data set: Hypoglycemic effect in db/db mouse assessed as reduction in glucose level at 30 mg/kg, po measured 8 hrs post dose administered as single dose by hexokinase method. It is filed as functional, organism-based. Set-up: dose 30 mg/kg.
The subject of data set [13] is Mus musculus. Described as §1. In kind it is ADME, organism-based. Set-up: dose 10 mg/kg, route oral. As to conditions: in vivo.
The test system of data set [14] is Mus musculus. The data set is described as §2. In kind it is ADME, organism-based. Set-up: dose 10 mg/kg, route oral. The settings on record: in vivo.
For data set [15], the system named is Mus musculus. The data set is described as §3. On the set-up: dose 10 mg/kg, route oral. The settings on record: in vivo. It is filed as ADME, organism-based.
The target in data set [16] is CYP3A4 (Homo sapiens, UniProt P08684). Nature of the data set: in vitro. As to conditions: probe BFC.
Description: Potency index, ratio of IC50 for CYP3A4 (unknown origin) using BFC substrate in which compound added to reaction mixture simultaneously with BFC substrate to IC50 for CYP3A4 using BFC substrate in which compound added to reaction mixture before addition of BFC substrate
In data set [17] the target is T2, Cytochrome P450 3A4. Nature of the data set: Inhibition of CYP3A4 using BFC substrate by fluorometric assay. As to conditions: TDE = time-dependent effect. In kind it is ADME.
Data set [18] deals with Mus musculus. Nature of the data set: Hypoglycemic effect in db/db mouse assessed as reduction in glucose AUC (0 to 8 hrs) at 100 mg/kg, po administered as single dose by hexokinase method relative to untreated control. It is filed as functional. Set-up: scale not given: the % may be the effect or the level left.

The structures appear in SMILES notation. Activity calls are given as the source filed them. The calls are words filed in the database; no cut-off is given here. Bounds are passed on as bounds.

From ChEMBL document CHEMBL2046440, “C-Aryl 5a-carba-β-d-glucopyranosides as novel sodium glucose cotransporter 2 (SGLT2) inhibitors for the treatment of type 2 diabetes” (Bioorg Med Chem, 2012) come the findings set out here.

T2 sequence (P08684 whole entry): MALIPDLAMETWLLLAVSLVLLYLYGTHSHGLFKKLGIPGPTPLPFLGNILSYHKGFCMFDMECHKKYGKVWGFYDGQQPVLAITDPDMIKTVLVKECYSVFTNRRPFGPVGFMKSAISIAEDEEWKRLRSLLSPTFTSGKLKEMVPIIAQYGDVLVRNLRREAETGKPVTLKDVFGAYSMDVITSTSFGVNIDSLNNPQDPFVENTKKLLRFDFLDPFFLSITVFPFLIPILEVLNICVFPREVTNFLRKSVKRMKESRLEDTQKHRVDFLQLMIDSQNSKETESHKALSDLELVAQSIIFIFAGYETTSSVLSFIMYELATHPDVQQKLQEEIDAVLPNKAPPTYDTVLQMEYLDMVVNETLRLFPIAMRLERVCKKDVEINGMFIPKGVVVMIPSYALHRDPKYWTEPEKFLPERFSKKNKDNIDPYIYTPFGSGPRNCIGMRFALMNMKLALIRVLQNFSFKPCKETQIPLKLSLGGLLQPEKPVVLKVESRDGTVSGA
Chain of CYP3A4 (P08684 whole entry): as above

Usually IC50 stands for the midpoint of a concentration-inhibition curve. `CCc1ccc(Cc2ccc(C)c([C@]3(O)C[C@H](CO)[C@@H](O)[C@H](O)[C@H]3O)c2)cc1` registered an IC50 in [1] of 170 nM.

On to `Cc1ccc([C@@H]2O[C@H](CO)[C@@H](O)[C@H](O)[C@H]2O)cc1Cc1ccc(-c2ccc(F)cc2)s1` [CANAGLIFLOZIN ANHYDROUS], for which, in [1], the midpoint of inhibition, the IC50, lay at 6.7 nM.

For the compound `COc1ccc(Cc2cccc([C@@H]3C[C@H](CO)[C@@H](O)[C@H](O)[C@H]3O)c2)cc1`, the IC50 in data set [2] was over 50000 nM; in data set [1], 73 nM; in data set [3], over 50000 nM.

As usually defined, the AUC(0-inf) is the area under the concentration-time curve extrapolated to infinity. Broadly, the half-life is the time in which the quantity being followed falls by half. Broadly, the CL/F is the apparent clearance, not corrected for the fraction that reaches the circulation. One may read the Cmax as the peak of the concentration-time curve. As a reminder, the Tmax is the time at which the peak concentration occurs. For `CCOc1ccc(Cc2ccc(CC)cc2)cc1[C@@H]1C[C@H](CO)[C@@H](O)[C@H](O)[C@H]1O`, the IC50 in [2] is over 50000 nM; in data set [1], 19 nM; in data set [3] it was 36600 nM. Also, the Vd/F in data set [4] was determined as 3.63 L/kg. This compound returned an AUC(0-inf) in data set [5] of 6240 ng·h/mL. The compound further showed a half-life in [6] of 94.2 min. Moreover, in [7], the apparent clearance CL/F is 26.7 mL/min/kg. Further, the outcome in data set [8] and in data set [12] was Active. The Activity in data set [9] came to 42.6%. For the same compound, the highest level in data set [10] (Cmax) was 3680 ng/mL. Also, the Tmax in [11] turned out to be 15 min.

For `CCc1ccc(Cc2cc([C@]3(O)C[C@H](CO)[C@@H](O)[C@H](O)[C@H]3O)c(OC)cc2OC)cc1`, the IC50 in data set [2] is over 50000 nM; in data set [1], 10 nM; in data set [3] it was 29000 nM.

As to `CCc1ccc(Cc2cc([C@@H]3C[C@H](CO)[C@@H](O)[C@H](O)[C@H]3O)ccc2OC)cc1`, the IC50 in data set [1] stood at 8.3 nM.

Turning to `CCOC(=O)OC[C@H]1O[C@@H](Oc2ccccc2Cc2ccc(OC)cc2)[C@H](O)[C@@H](O)[C@@H]1O` [SERGLIFLOZIN ETABONATE], the Vz/F in data set [13] was found to be 3.315 L/kg. Also, in [5], the AUC(0-inf) amounted to 2970 ng·h/mL. This compound showed a t1/2 in [14] of 49.2 min. The outcome in data set [8] was Active. Besides, in data set [15], the maximum concentration (Cmax) turned out to be 3360 ng/mL. The Tmax in [11] is 15 min. For the same compound, the outcome in data set [12] was inactive.

`CCc1ccc(Cc2ccc(OC)c([C@]3(O)C[C@H](CO)[C@@H](O)[C@H](O)[C@H]3O)c2)cc1` registered an IC50 in [1] of 14 nM.

With `OC[C@H]1C[C@@H](c2cccc(Cc3ccc(C4CC4)cc3)c2)[C@H](O)[C@@H](O)[C@@H]1O`, the IC50 came out at 33000 nM in data set [2], 11 nM in data set [1] and 76000 nM in data set [3]. In data set [16], the IC50 shift came to 2.3. Besides, the “inhibition (INH)” value in data set [17] is recorded as “tde”.

Consider `COc1ccc(Cc2ccccc2O[C@@H]2C[C@H](CO)[C@@H](O)[C@H](O)[C@H]2O)cc1`, for which the Vz/F in [13] came to 12.586 L/kg. In data set [5], the AUC(0-inf) worked out at 3070 ng·h/mL. This compound also came in with a t1/2 in data set [14] of 161 min. Besides, the Cmax in [15] is 1640 ng/mL. Besides, the Tmax in data set [11] is 15 min. Further, the Activity in [18] is 41.6%.

Turning to `CCOc1ccc(Cc2ccc(CC)cc2)cc1[C@]1(O)C[C@H](CO)[C@@H](O)[C@H](O)[C@H]1O`, in [8], the outcome was Active. Further, in data set [1], the IC50 is 9.9 nM. Moreover, in data set [9], the Activity turned out to be 39.1%. For the same compound, the result in data set [12] was inactive.

For the compound `CCc1ccc(Cc2ccc(C)c([C@@H]3C[C@H](CO)[C@@H](O)[C@H](O)[C@H]3O)c2)cc1`, in data set [1], half-maximal inhibition (IC50) was put at 52 nM.

With `CCc1ccc(Cc2cccc([C@@H]3C[C@H](CO)[C@@H](O)[C@H](O)[C@H]3O)c2)cc1`, the concentration for half-maximal inhibition (IC50) is over 50000 nM in [2], 49 nM in data set [1] and over 50000 nM in data set [3].

For the compound `CCc1ccc(Cc2ccc(OC)c([C@@H]3C[C@H](CO)[C@@H](O)[C@H](O)[C@H]3O)c2)cc1`, the results for the IC50 in data set [2], in data set [1] and in [3] were over 50000 nM, 12 nM and over 50000 nM, respectively.

In [1], `CCc1ccc(Cc2cc([C@]3(O)C[C@H](CO)[C@@H](O)[C@H](O)[C@H]3O)ccc2OC)cc1` registered an IC50 of 100 nM.

With `CCc1ccc(Cc2cc([C@@H]3C[C@H](CO)[C@@H](O)[C@H](O)[C@H]3O)c(OC)cc2OC)cc1`, the half-maximal inhibitory concentration (IC50) in [2] was determined as 40300 nM; in data set [1] it was 8.5 nM; in data set [3] it was 25700 nM. The IC50 shift in data set [16] is 0.6.
